Laboratory results published in patent US3956291A, “7-Thioacetamido cephalosporanic acid derivatives” (American Home Products Corporation, priority 1974, dated 1976).
≈ marks a conversion by molar mass, not a printed value. Read-outs that look alike come from different tables or passages of the source.

Experiments:
Assay in all cases: agar serial dilution test, minimum inhibitory concentration
Format in all cases: cell-based
escherichia coli = tested on: escherichia coli
Text: (§1) The compounds of this invention are useful for the treatment of bacterial infections amenable to treatment by cephalosporins. […] In accordance with the results obtained with the antibacterial compounds of this invention, their usefulness is established in the fields of comparative pharmacology and microbiology for the purpose of inhibiting the growth of undesirable bacterial colonies. […]

salmonella paratyphi = conditions: Salmonella enterica, read-out: Minimum Inhibitory Concentration
Text: as §1

Staphylococcus aureus = conditions: for MIC: Staphylococcus aureus
Text: as §1

klebsiella pneumoniae = tested on: klebsiella pneumoniae
Text: as §1

proteus vulgaris = tested on: proteus vulgaris
Text: as §1

bacillus subtilis = conditions: BA SU strain 6633; for MIC: Bacillus subtilis
Text: as §1

bordetella brochiseptica = conditions: BO BR strain 4617
Text: as §1

neisseria catarrhalis = tested on: neisseria catarrhalis
Text: as §1

herellea species = conditions: HE SP strain 9955
Text: The compounds of this invention are useful for the treatment of bacterial infections amenable to treatment by cephalosporins. […] In accordance with the results obtained with the antibacterial compounds of this invention, their usefulness is established in the fields of comparative pharmacology and microbiology for the purpose of inhibiting the growth of undesirable bacterial colonies.
The nmr spectra described in the following examples pertains to the spectra obtained upon exchanging acidic hydrogens with deuterium and are described in ppm (δ). The small amount of water and/or solvent carried into the products is readily removed by gently heating the material under vacuum. […]

[1] = read-out: Minimum Inhibitory Concentration
[2] = PR VU strain 6896, read-out: Minimum Inhibitory Concentration
[3] = KL PN strain 10031, read-out: Minimum Inhibitory Concentration
[4] = NE CA strain 8193, read-out: Minimum Inhibitory Concentration

Structure (SMILES) | MIC (escherichia coli; ES CO strain 920) | MIC (escherichia coli; ES CO strain 9637) | MIC (salmonella paratyphi) | MIC (Staphylococcus aureus; ST AU strain 53-180) | MIC (Staphylococcus aureus; ST AU strain 6538P) | MIC (Staphylococcus aureus; ST AU strain CHP) | MIC (Staphylococcus aureus; ST AU strain Smith) | MIC (klebsiella pneumoniae; [1]) | MIC (proteus vulgaris; [2]) | MIC (bacillus subtilis) | MIC (bordetella brochiseptica) | MIC (neisseria catarrhalis; [1]) | MIC (herellea species) | MIC (klebsiella pneumoniae; [3]) | MIC (neisseria catarrhalis; [4]) | MIC (proteus vulgaris; [1]) | Minimum Inhibitory Concentration (Staphylococcus aureus; ST AU strain 6538P) | Minimum Inhibitory Concentration (Staphylococcus aureus; ST AU strain Smith) | Minimum Inhibitory Concentration (bacillus subtilis)
CC(=O)OCC1=C(C(=O)O)N2C(=O)[C@@H](NC(=O)CSC(SCC#N)=C(C#N)C#N)[C@H]2SC1 [Example 2, 7-(2-[2,2-Dicyano-1-(cyanomethylthio)ethenylthio]acetamido)cephalosporanic acid] | 250 mg/L (≈ 507 µM) | 31.3 mg/L (≈ 63.4 µM) | 15.6 mg/L (≈ 31.6 µM) | 1.95 mg/L (≈ 3.95 µM) | 0.488 mg/L (≈ 0.989 µM) | 1.95 mg/L (≈ 3.95 µM) | 0.488 mg/L (≈ 0.989 µM) | 15.6 mg/L (≈ 31.6 µM) | 31.3 mg/L (≈ 63.4 µM) | 0.061 mg/L (≈ 0.124 µM) | 62.5 mg/L (≈ 127 µM) | 15.6 mg/L (≈ 31.6 µM) | 250 mg/L (≈ 507 µM) |  |  |  |  |  | 
CC(=O)OCC1=C(C(=O)O)N2C(=O)[C@@H](NC(=O)CSC(=C[N+](=O)[O-])SCc3ccccc3)[C@H]2SC1 [Example 9, 7-[2-(1-Benzylthio-2-nitroethenylthio)acetamido]cephalosporanic acid] |  | 250 mg/L (≈ 463 µM) | 62.5 mg/L (≈ 116 µM) | 0.488 mg/L (≈ 0.904 µM) | 0.122 mg/L (≈ 0.226 µM) | 0.488 mg/L (≈ 0.904 µM) | 0.122 mg/L (≈ 0.226 µM) |  | 125 mg/L (≈ 232 µM) | 0.031 mg/L (≈ 0.0574 µM) | 250 mg/L (≈ 463 µM) |  |  | 125 mg/L (≈ 232 µM) | 7.81 mg/L (≈ 14.5 µM) |  |  |  | 
COC(=O)CSC(SCC(=O)N[C@@H]1C(=O)N2C(C(=O)O)=C(COC(C)=O)CS[C@H]12)=C(C#N)C(N)=O [Example 3, 7-(2-[2-Carbamoyl-1-(methoxycarbonylmethylthio)-2-cyanoethenylthio]acetamido) cephalosporanic acid] |  | 62.5 mg/L (≈ 115 µM) | 31.3 mg/L (≈ 57.5 µM) | 1.95 mg/L (≈ 3.58 µM) | 0.488 mg/L (≈ 0.896 µM) | 3.9 mg/L (≈ 7.16 µM) | 0.488 mg/L (≈ 0.896 µM) |  | 62.5 mg/L (≈ 115 µM) | 0.122 mg/L (≈ 0.224 µM) |  |  |  | 125 mg/L (≈ 230 µM) | 7.81 mg/L (≈ 14.3 µM) |  |  |  | 
CCOC(=O)CSC(SCC(=O)N[C@@H]1C(=O)N2C(C(=O)O)=C(COC(C)=O)CS[C@H]12)=C(C#N)C#N [Example 1, 7-(2[2,2-Dicyano-1-(ethoxycarbonylmethylthio)ethenylthio]acetamido)cephalosporanic acid] |  | 250 mg/L (≈ 462 µM) | 125 mg/L (≈ 231 µM) | 3.9 mg/L (≈ 7.21 µM) | 0.976 mg/L (≈ 1.81 µM) | 7.81 mg/L (≈ 14.4 µM) | 0.976 mg/L (≈ 1.81 µM) |  |  | 0.244 mg/L (≈ 0.451 µM) | 250 mg/L (≈ 462 µM) | 125 mg/L (≈ 231 µM) |  | 250 mg/L (≈ 462 µM) |  | 125 mg/L (≈ 231 µM) |  |  | 
CC(=O)OCC1=C(C(=O)O)N2C(=O)[C@@H](NC(=O)CSC(SCC#N)=C(C#N)c3ccccc3)[C@H]2SC1 [Example 8, 7-(2-[2-Cyano-1-(cyanomethylthio)-2-phenylethenylthio]acetamido)cephalosporanic acid] | 250 mg/L (≈ 459 µM) | 25 mg/L (≈ 45.9 µM) | 62.5 mg/L (≈ 115 µM) | 0.976 mg/L (≈ 1.79 µM) | 0.244 mg/L (≈ 0.448 µM) | 0.976 mg/L (≈ 1.79 µM) | 0.244 mg/L (≈ 0.448 µM) | 62.5 mg/L (≈ 115 µM) | 250 mg/L (≈ 459 µM) | 0.031 mg/L (≈ 0.0569 µM) | 250 mg/L (≈ 459 µM) |  |  |  | 3.9 mg/L (≈ 7.16 µM) |  |  |  | 
CC(=O)OCC1=C(C(=O)O)N2C(=O)C(NC(=O)CSC(SCC#N)=C(C#N)S(C)(=O)=O)C2SC1 (centres unmarked) [Example 11, 7-[2-(2-Cyano-1-cyanomethylthio-2-methylsulfonylethenylthio)acetamido]cephalosporanic acid] |  |  |  |  |  |  |  |  |  |  |  |  |  |  |  |  | 250 micrograms per milliliter | 250 micrograms per milliliter | 15.6 micrograms per milliliter
CCOC(=O)CSC(=NC#N)SCC(=O)N[C@@H]1C(=O)N2C(C(=O)O)=C(COC(C)=O)CS[C@H]12 [Example 12, 7-[2-[(cyanoimino)(2-ethoxy-2-oxoethylthio)methylthio]acetamido]cephalosporanic acid] | 250 mg/L (≈ 484 µM) | 250 mg/L (≈ 484 µM) | 31.3 mg/L (≈ 60.6 µM) | 1.95 mg/L (≈ 3.77 µM) | 0.976 mg/L (≈ 1.89 µM) | 3.9 mg/L (≈ 7.55 µM) | 0.488 mg/L (≈ 0.945 µM) | 31.3 mg/L (≈ 60.6 µM) | 62.5 mg/L (≈ 121 µM) | 0.122 mg/L (≈ 0.236 µM) | 250 mg/L (≈ 484 µM) |  |  |  | 62.5 mg/L (≈ 121 µM) |  |  |  | 
CC(=O)OCC1=C(C(=O)O)N2C(=O)[C@@H](NC(=O)CSC(=NC#N)SCc3cccc(Cl)c3)[C@H]2SC1 [Example 16, 7-[2-[(3-chlorophenylmethylthio) (cyanoimino)methylthio]acetamido]cephalosporanic acid] | 250 mg/L (≈ 450 µM) | 250 mg/L (≈ 450 µM) | 31.3 mg/L (≈ 56.4 µM) | 3.9 mg/L (≈ 7.03 µM) | 0.976 mg/L (≈ 1.76 µM) | 1.95 mg/L (≈ 3.51 µM) | 1.95 mg/L (≈ 3.51 µM) |  | 125 mg/L (≈ 225 µM) | 0.122 mg/L (≈ 0.22 µM) | 250 mg/L (≈ 450 µM) |  |  | 125 mg/L (≈ 225 µM) | 125 mg/L (≈ 225 µM) |  |  |  | 
CC(=O)OCC1=C(C(=O)O)N2C(=O)[C@@H](NC(=O)CSC(=NC#N)SCc3ccc([N+](=O)[O-])cc3)[C@H]2SC1 [Example 13, 7-[2-[(cyanoimino)(4-nitrophenylmethylthio)methylthio]acetamido]cephalosporanic acid] |  | 250 mg/L (≈ 442 µM) | 62.5 mg/L (≈ 110 µM) | 3.9 mg/L (≈ 6.9 µM) | 1.95 mg/L (≈ 3.45 µM) | 3.9 mg/L (≈ 6.9 µM) | 1.95 mg/L (≈ 3.45 µM) |  |  | 0.488 mg/L (≈ 0.863 µM) | 125 mg/L (≈ 221 µM) | 62.5 mg/L (≈ 110 µM) |  | 250 mg/L (≈ 442 µM) |  | 62.5 mg/L (≈ 110 µM) |  |  | 
